{"source": "paper PMC7252906", "about": "(Toxicology and applied pharmacology, 2019)", "key": {"[1]": {"test": "Radiochemical HPLC profiling of urine after [^14C]DMAE", "format": "in vivo, Harlan Sprague Dawley rats"}, "[2]": {"test": "Radiochemical HPLC profiling of urine after [^14C]DMAE", "conditions": "Oral"}, "[3]": {"test": "Formation of N,N-dimethylnitrosamine after oral DMAE", "format": "in vivo", "conditions": "rats, oral DMAE 10 to 500 mg/kg; limit of quantitation 5 pg/mL"}, "[4]": {"conditions": "for residual radioactivity remaining in tissues (excluding GI tract): male and female rats"}, "[5]": {"conditions": "female mice, gavage 160 mg/kg, 24 h"}, "rodents": {"test_system": "rodents", "conditions": "ref NTP 2002; cited from earlier work"}, "[6]": {"conditions": "female rats, IV 16 mg/kg, 24 h, DMAE dose 0"}, "[7]": {"conditions": "female rats, IV 16 mg/kg, 24 h, DMAE dose 0, listed as [^14C]choline, 16 mg/kg"}, "[8]": {"conditions": "female rats, gavage 160 mg/kg, 24 h, DMAE dose 0"}, "[9]": {"conditions": "female rats, gavage 160 mg/kg, 24 h, DMAE dose 0, listed as [^14C]choline, 160 mg/kg"}, "[10]": {"conditions": "female rats, gavage 160 mg/kg, 24 h, DMAE pre-treatment 100 mg/kg"}, "[11]": {"conditions": "female rats, gavage 160 mg/kg, 24 h, DMAE pre-treatment 500 mg/kg"}, "[12]": {"conditions": "male rats, IV 16 mg/kg, 24 h, DMAE dose 0"}, "[13]": {"conditions": "male rats, gavage 160 mg/kg, 24 h, DMAE dose 0"}, "[14]": {"conditions": "male rats, gavage 160 mg/kg, 24 h, DMAE pre-treatment 100 mg/kg, 1 h prior"}, "[15]": {"conditions": "male rats, gavage 160 mg/kg, 24 h, DMAE pre-treatment 500 mg/kg, 1 h prior"}, "[16]": {"conditions": "male rats, gavage 160 mg/kg, 24 h, three DMAE pre-treatments 100 mg/kg 48, 24 and 1 h prior"}, "[17]": {"conditions": "DMAE dose 0, listed as [^14C]choline, 160 mg/kg"}, "[18]": {"conditions": "DMAE pre-treatment 500 mg/kg, 1 h prior"}}, "note": "Several values for one entry are separate records, joined by “and”; a condition that tells them apart may be missing. Equal values may be shown once. Read-outs that look alike come from different tables or passages of the source.", "data": [{"smiles": "C[N+](C)([O-])CCO", "note": "[DMAE Oxide]", "values": [{"measurement": "Estimated percentage of area of DMAE Oxide peak in urine chromatogram", "setting": "[1]; Rat/Female, [^14C]DMAE 500 mg/kg, Oral", "value": 45, "unit": "%"}, {"measurement": "Estimated percentage of area of DMAE Oxide peak in urine chromatogram", "setting": "[1]; Rat/Male, [^14C]DMAE 10 mg/kg, IV", "value": 97, "unit": "%"}, {"measurement": "Estimated percentage of area of DMAE Oxide peak in urine chromatogram", "setting": "[1]; Rat/Male, [^14C]DMAE 10 mg/kg, Oral", "value": 5, "unit": "%"}, {"measurement": "Estimated percentage of area of DMAE Oxide peak in urine chromatogram", "setting": "[1]; Rat/Male, [^14C]DMAE 100 mg/kg, Oral", "value": 44, "unit": "%"}, {"measurement": "Estimated percentage of area of DMAE Oxide peak in urine chromatogram", "setting": "[1]; Rat/Male, [^14C]DMAE 500 mg/kg, Oral", "value": 66, "unit": "%"}, {"measurement": "Estimated percentage of area of DMAE Oxide peak in urine chromatogram", "setting": "[2]; Mouse/Female, [^14C]DMAE 10 mg/kg", "value": 92, "unit": "%"}, {"measurement": "Estimated percentage of area of DMAE Oxide peak in urine chromatogram", "setting": "[2]; Mouse/Female, [^14C]DMAE 100 mg/kg", "value": 18, "unit": "%"}, {"measurement": "Estimated percentage of area of DMAE Oxide peak in urine chromatogram", "setting": "[2]; Mouse/Female, [^14C]DMAE 500 mg/kg", "value": 34, "unit": "%"}, {"measurement": "Estimated percentage of area of DMAE Oxide peak in urine chromatogram", "setting": "[2]; Mouse/Male, [^14C]DMAE 500 mg/kg", "value": 0, "unit": "%"}, {"measurement": "Estimated percentage of area of DMAE Oxide peak in urine chromatogram", "setting": "[2]; Mouse/Male, [^14C]DMAE 500 mg/kg, listed as DMAE oxide", "value": "absent"}]}, {"smiles": "CN(C)N=O", "note": "[N,N-dimethylnitrosamine]", "values": [{"measurement": "N,N-dimethylnitrosamine detection", "setting": "[3]", "value": "not detected"}]}, {"smiles": "C[N+](C)(C)CCO", "note": "[choline, N,N,N-trimethylaminoethanol]", "values": [{"measurement": "% Dose Recovered, CO2", "setting": "[4]; [6]", "value": "28.1 ± 2.90", "unit": "% dose"}, {"measurement": "% Dose Recovered, Tissues and GI Tract (includes contents)", "setting": "[4]; [6]", "value": "54.0 ± 5.50", "unit": "% dose"}, {"measurement": "% Dose Recovered, VOCs", "setting": "[4]; [6]", "value": "0.284 ± 0.038", "unit": "% dose"}, {"measurement": "% Dose Recovered, Total Recovered", "setting": "[4]; [7]", "value": "90.1 ± 6.10", "unit": "% dose"}, {"measurement": "% Dose Recovered, Urine", "setting": "[4]; [7]", "value": "7 % dose and 7.45 ± 2.58 % dose"}, {"measurement": "% Dose Recovered, Tissues and GI Tract (includes contents)", "setting": "[4]; [8]", "value": "26.1 ± 3.80", "unit": "% dose"}, {"measurement": "% Dose Recovered, Total Recovered", "setting": "[4]; [8]", "value": "91.3 ± 9.60", "unit": "% dose"}, {"measurement": "% Dose Recovered, VOCs", "setting": "[4]; [8]", "value": "0.325 ± 0.025", "unit": "% dose"}, {"measurement": "% Dose Recovered, CO2", "setting": "[4]; [9]", "value": "18 % dose and 17.8 ± 1.70 % dose"}, {"measurement": "% Dose Recovered, Urine", "setting": "[4]; [9]", "value": "34 % dose and 34.2 ± 7.90 % dose"}, {"measurement": "% Dose Recovered, Tissues and GI Tract (includes contents)", "setting": "[4]; [10]", "value": "24.7 ± 2.70", "unit": "% dose"}, {"measurement": "% Dose Recovered, Total Recovered", "setting": "[4]; [10]", "value": "92.9 ± 4.80", "unit": "% dose"}, {"measurement": "% Dose Recovered, VOCs", "setting": "[4]; [10]", "value": "0.268 ± 0.026", "unit": "% dose"}, {"measurement": "dose recovered in tissues (excluding GI tract)", "setting": "[4]; [10]", "value": 21, "unit": "%"}, {"measurement": "% Dose Recovered, CO2", "setting": "[4]; [11]", "value": "22.4 ± 3.60", "unit": "% dose"}, {"measurement": "% Dose Recovered, Tissues and GI Tract (includes contents)", "setting": "[4]; [11]", "value": "25.9 ± 4.70", "unit": "% dose"}, {"measurement": "% Dose Recovered, Total Recovered", "setting": "[4]; [11]", "value": "94.1 ± 4.80", "unit": "% dose"}, {"measurement": "% Dose Recovered, Urine", "setting": "[4]; [11]", "value": "43.3 ± 5.60", "unit": "% dose"}, {"measurement": "% Dose Recovered, VOCs", "setting": "[4]; [11]", "value": "0.227 ± 0.057", "unit": "% dose"}, {"measurement": "recovery in tissues other than the GI tract", "setting": "[4]; female rats, gavage 160 mg/kg, 24 h, [^14C]choline alone", "value": "~ 21%"}, {"measurement": "total dose recovered", "setting": "[4]; female rats, gavage 160 mg/kg, range over groups", "value": "91–94%"}, {"measurement": "residual radioactivity remaining in tissues (excluding GI tract)", "setting": "[4]; IV 16 mg/kg, 24 h", "value": "48–49%"}, {"measurement": "residual radioactivity remaining in tissues (excluding GI tract)", "setting": "[4]; oral gavage, 24 h", "value": "17–21%"}, {"measurement": "% Dose Recovered, CO2", "setting": "[4]; [12]", "value": "17.4 ± 2.40", "unit": "% dose"}, {"measurement": "% Dose Recovered, Tissues and GI Tract (includes contents)", "setting": "[4]; [12]", "value": "56.2 ± 9.90", "unit": "% dose"}, {"measurement": "% Dose Recovered, VOCs", "setting": "[4]; [12]", "value": "0.139 ± 0.035", "unit": "% dose"}, {"measurement": "% Dose Recovered, Urine", "setting": "[4]; male rats, IV 16 mg/kg, 24 h, DMAE dose 0, listed as [^14C]choline, 16 mg/kg", "value": "4 % dose and 3.92 ± 0.850 % dose"}, {"measurement": "% Dose Recovered, Tissues and GI Tract (includes contents)", "setting": "[4]; [13]", "value": "21.4 ± 2.80", "unit": "% dose"}, {"measurement": "% Dose Recovered, Total Recovered", "setting": "[4]; [13]", "value": "88.2 ± 5.50", "unit": "% dose"}, {"measurement": "% Dose Recovered, CO2", "setting": "[4]; male rats, gavage 160 mg/kg, 24 h, DMAE dose 0, listed as [^14C]choline, 160 mg/kg", "value": "12.5 ± 2.20", "unit": "% dose"}, {"measurement": "% Dose Recovered, CO2", "setting": "[4]; [14]", "value": "12.4 ± 1.70", "unit": "% dose"}, {"measurement": "% Dose Recovered, Tissues and GI Tract (includes contents)", "setting": "[4]; [14]", "value": "20.4 ± 5.60", "unit": "% dose"}, {"measurement": "% Dose Recovered, Urine", "setting": "[4]; [14]", "value": "31.9 ± 4.60", "unit": "% dose"}, {"measurement": "% Dose Recovered, VOCs", "setting": "[4]; [14]", "value": "0.018 ± 0.003", "unit": "% dose"}, {"measurement": "% Dose Recovered, CO2", "setting": "[4]; [15]", "value": "15.1 ± 4.00", "unit": "% dose"}, {"measurement": "% Dose Recovered, Tissues and GI Tract (includes contents)", "setting": "[4]; [15]", "value": "20.0 ± 3.80", "unit": "% dose"}, {"measurement": "% Dose Recovered, Urine", "setting": "[4]; [15]", "value": "40.7 ± 6.30", "unit": "% dose"}, {"measurement": "% Dose Recovered, VOCs", "setting": "[4]; [15]", "value": "0.065 ± 0.002", "unit": "% dose"}, {"measurement": "dose recovered in tissues (excluding GI tract)", "setting": "[4]; male rats, gavage 160 mg/kg, 24 h, [^14C]choline alone", "value": "~ 18%"}, {"measurement": "dose recovered in feces", "setting": "[4]; male rats, gavage 160 mg/kg, 24 h, pre-treatment with multiple doses of 100 mg/kg or a single dose of 500 mg/kg DMAE", "value": "10–12%"}, {"measurement": "% Dose Recovered, CO2", "setting": "[4]; [16]", "value": "17.0 ± 1.70", "unit": "% dose"}, {"measurement": "% Dose Recovered, Tissues and GI Tract (includes contents)", "setting": "[4]; [16]", "value": "26.6 ± 5.30", "unit": "% dose"}, {"measurement": "% Dose Recovered, Total Recovered", "setting": "[4]; [16]", "value": "93.7 ± 2.70", "unit": "% dose"}, {"measurement": "% Dose Recovered, Urine", "setting": "[4]; [16]", "value": "39.9 ± 3.80", "unit": "% dose"}, {"measurement": "% Dose Recovered, VOCs", "setting": "[4]; [16]", "value": "below the limit of detection"}, {"measurement": "% Dose Recovered, Tissues and GI Tract (includes contents)", "setting": "[5]; DMAE dose 0", "value": "18.2 ± 2.90", "unit": "% dose"}, {"measurement": "% Dose Recovered, CO2", "setting": "[5]; [17]", "value": "25 % dose and 24.5 ± 5.40 % dose"}, {"measurement": "% Dose Recovered, Urine", "setting": "[5]; [17]", "value": "32 % dose and 31.8 ± 11.1 % dose"}, {"measurement": "% Dose Recovered, VOCs", "setting": "[5]; [17]", "value": "4 % dose and 3.61 ± 3.75 % dose"}, {"measurement": "% Dose Recovered, CO2", "setting": "[5]; [18]", "value": "26.4 ± 8.60", "unit": "% dose"}, {"measurement": "% Dose Recovered, Tissues and GI Tract (includes contents)", "setting": "[5]; [18]", "value": "18.4 ± 9.80", "unit": "% dose"}, {"measurement": "% Dose Recovered, VOCs", "setting": "[5]; [18]", "value": "2.41 ± 1.77", "unit": "% dose"}, {"measurement": "% Dose Recovered, Urine", "setting": "[5]; DMAE pre-treatment 500 mg/kg, 1 h prior, listed as [^14C]choline", "value": "32 % dose and 32.4 ± 7.20 % dose"}, {"measurement": "recovery in tissues (excluding GI tract)", "setting": "[5]; [^14C]choline alone", "value": 15, "unit": "%"}, {"measurement": "oral LD50", "setting": "rodents", "value": "3400 to 3900", "unit": "mg/kg"}]}]}
